Laboratory results published in ChEMBL document CHEMBL1201862, “PubChem BioAssay data set” (2004).
Where “and” joins values, the source holds several entries; their conditions need not be identical. Identical values can stand only once. Calls of active or inactive are those of the source.

Tests used:
[1] = biological target: Nuclear receptor subfamily 0 group B member 1 (Homo sapiens, UniProt P51843); assay: Luminescence-based cell-based high throughput dose response assay for inhibitors of the orphan nuclear receptor subfamily 0, group B, member 1 (DAX1; NR0B1). [Related pubchem assays (depositor defined):AID504766, AID504790]; assay type: functional
[2] = biological target: FAD-linked sulfhydryl oxidase ALR (Homo sapiens, UniProt P55789); assay: ALR-catalysed DTT oxidation blockers – biochemical, H2O2 detection, luminescence, cherry-pick, dose response (AID 493248)
HEK293 [3] = assay: cells; assay type: functional, cell-based; conditions: Homo sapiens
[4] = MIN6 cell viability loss – mouse insulinoma, cytotoxicity control, dose response (AID 2122); assay type: functional;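 note: confirmatory high-throughput counterscreen run to flag cytotoxic compounds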
[5] = decrease of insulin promoter-GFP reporter – imaging, high-content screening, mouse beta cells (AID 1628); assay type: functional; conditions: MIN6
Escherichia coli = assay: microbe, parasite or virus in culture
[6] = DRD fibroblast viability loss – cell-based, non-viral oncogenic, luminescence, dose response (AID 1934); assay type: functional; conditions: Homo sapiens
BJ [7] = assay: BJ-TERT-LT-ST fibroblast viability loss – cell-based, RAS-independent, luminescence, dose response (AID 1935); assay type: functional; conditions: Homo sapiens;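 note: BJ fibroblasts immortalized with TERT plus LT and ST oncogenes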
[8] = Luminescence Cell-Based Dose Retest to Confirm Inhibitors of Cancer Stem Cells. [Related pubchem assays (depositor defined):AID2717, AID2721]; assay type: functional; conditions: Homo sapiens
BJ [9] = assay: cells; assay type: functional, cell-based; conditions: Homo sapiens
BJ [10] = assay: BJ-TERT fibroblast viability loss – cell-based, RAS-independent, luminescence, dose response (AID 1933); assay type: functional; conditions: Homo sapiens
[11] = biological target: Dual specificity tyrosine-phosphorylation-regulated kinase 1A (Rattus norvegicus, UniProt Q63470); assay type: biochemical, Homo sapiens
HEK293 [12] = assay: EBV LMP1 TES2 canonical NF-kB signalling blockers – cell-based, HEK293, luciferase, cherry-pick, dose response (AID 588343); assay type: functional; conditions: Homo sapiens
[13] = biological target: T1, Kappa-type opioid receptor (Homo sapiens, UniProt P41145); assay: SAR analysis of small molecule agonists of the kappa opioid receptor via a luminescent beta-arrestin assay - Set 3. [Related pubchem assays (depositor defined):AID1777, AID1785, AID1786, AID1966, AID2133, AID2136, AID2284, AID2500]; assay type: functional
[14] = biological target: T2, Voltage-gated N-type calcium channel alpha-1B subunit/Amyloid beta A4 precursor protein-binding family A member 1 (Homo sapiens, UniProt Q00975+Q02410); assay: disruptors of Mint-PDZ/N-type channel peptide interaction – biochemical, HTRF, SAR follow-up (AID 2489); assay type: functional
SUMO E1/E2 = SUMO E1/E2 (Homo sapiens, UniProt P63279+Q9UBE0+Q9UBT2); assay: SAR analysis of SUMOylation using HTRF in an in-Vitro dose response assay. [Related pubchem assays (depositor defined):AID2006, AID2011, AID2018, AID2069, AID2658]; assay type: functional
[15] = biological target: T2, Voltage-gated N-type calcium channel alpha-1B subunit/Amyloid beta A4 precursor protein-binding family A member 1; assay: disruptors of Mint-PDZ/N-type channel peptide interaction – biochemical, HTRF, set 2, SAR follow-up (AID 434980); assay type: functional
Phospholipase D2 = Phospholipase D2 (Homo sapiens, UniProt O14939); assay: PLD2 purified enzyme concentration response. [Related pubchem assays (depositor defined):AID588854]; assay type: functional
Phospholipase D1 = biological target: T3, Phospholipase D1 (Homo sapiens, UniProt Q13393); assay: PLD1 purified enzyme concentration response. [Related pubchem assays (depositor defined):AID588854]; assay type: functional
T3 sequence (Q13393 whole entry): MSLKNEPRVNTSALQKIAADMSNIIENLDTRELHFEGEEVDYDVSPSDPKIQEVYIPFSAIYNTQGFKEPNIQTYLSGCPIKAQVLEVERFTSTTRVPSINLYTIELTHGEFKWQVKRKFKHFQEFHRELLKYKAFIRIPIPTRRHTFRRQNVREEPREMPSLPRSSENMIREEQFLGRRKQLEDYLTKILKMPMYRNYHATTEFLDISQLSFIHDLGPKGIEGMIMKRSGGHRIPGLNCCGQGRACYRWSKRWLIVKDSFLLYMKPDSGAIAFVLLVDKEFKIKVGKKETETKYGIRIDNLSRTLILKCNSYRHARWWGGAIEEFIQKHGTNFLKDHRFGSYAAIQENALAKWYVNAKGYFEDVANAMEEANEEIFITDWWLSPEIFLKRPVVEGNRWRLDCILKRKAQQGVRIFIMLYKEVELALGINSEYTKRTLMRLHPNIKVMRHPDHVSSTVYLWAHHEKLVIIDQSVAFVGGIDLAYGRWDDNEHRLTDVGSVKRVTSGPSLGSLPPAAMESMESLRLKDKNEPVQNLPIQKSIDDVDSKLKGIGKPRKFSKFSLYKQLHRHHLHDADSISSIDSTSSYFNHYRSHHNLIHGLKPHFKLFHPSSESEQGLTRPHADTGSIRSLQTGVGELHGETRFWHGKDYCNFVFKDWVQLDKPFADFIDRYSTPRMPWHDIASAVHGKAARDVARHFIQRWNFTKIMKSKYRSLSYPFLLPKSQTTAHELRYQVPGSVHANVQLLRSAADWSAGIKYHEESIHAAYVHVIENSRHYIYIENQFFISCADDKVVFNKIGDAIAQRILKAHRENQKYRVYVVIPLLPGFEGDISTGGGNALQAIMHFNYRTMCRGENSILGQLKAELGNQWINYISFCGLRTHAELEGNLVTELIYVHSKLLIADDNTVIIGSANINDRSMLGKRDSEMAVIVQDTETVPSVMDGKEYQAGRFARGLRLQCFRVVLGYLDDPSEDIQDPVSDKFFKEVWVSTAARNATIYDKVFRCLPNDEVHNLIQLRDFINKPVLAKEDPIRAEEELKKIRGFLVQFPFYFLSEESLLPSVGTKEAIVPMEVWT

[16] = biological target: T4, Mannose-6-phosphate isomerase (Homo sapiens, UniProt P34949); assay: phosphomannose isomerase inhibition – biochemical, fluorescence intensity, confirmation (AID 1535)
T4 sequence (P34949 whole entry): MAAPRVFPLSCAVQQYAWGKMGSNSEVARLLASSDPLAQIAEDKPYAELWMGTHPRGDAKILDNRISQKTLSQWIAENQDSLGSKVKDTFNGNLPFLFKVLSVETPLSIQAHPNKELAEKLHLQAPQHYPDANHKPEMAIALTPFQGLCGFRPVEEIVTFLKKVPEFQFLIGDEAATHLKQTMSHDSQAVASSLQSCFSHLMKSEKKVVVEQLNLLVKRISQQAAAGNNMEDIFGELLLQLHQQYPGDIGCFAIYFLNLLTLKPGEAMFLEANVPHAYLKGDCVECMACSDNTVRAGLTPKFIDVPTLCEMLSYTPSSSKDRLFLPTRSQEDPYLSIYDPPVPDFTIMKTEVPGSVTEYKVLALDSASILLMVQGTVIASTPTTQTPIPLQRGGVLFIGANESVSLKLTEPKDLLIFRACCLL

[17] = biological target: T1, Kappa-type opioid receptor; assay type: functional
[18] = biological target: ATP-dependent molecular chaperone HSP82 (Candida albicans (strain WO-1) (Yeast), UniProt C4YTQ8); assay: steroid-induced GRE reporter decrease in yeast – S. cerevisiae, luminescence, Hsp90 inhibitor project, dose response (AID 2400); assay type: functional, cell-based;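 note: beta-galactosidase luminescence from glucocorticoid response element reporter as proxy for Hsp90 function; inhibitor potency where signal loss means Hsp90 inhibition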
INS1 = assay: INS-1E survival protection against cytokine death – cell-based, luminescence, retest, dose response (AID 449756); assay type: functional; conditions: Rattus norvegicus;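 note: cell death triggered by IL-1 beta plus TNF-alpha plus IFN-gamma mixture; protective hits raise ATP signal compared with cytokine alone wells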
[19] = test system: Streptococcus sp. 'group A'; assay: Streptococcus pyogenes SK(-)GAS viability under kanamycin – luminescence, BacTiterGlo, confirmation, counter-screen for streptokinase expression inhibitor project, dose response (AID 1900); assay type: functional, organism-based
[20] = NIH-3T3 fibroblast cytotoxicity, dose response, cytotoxicity control, cell-based, fluorescence, Alamar Blue, secondary assay (AID 2327); assay type: functional;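 note: NIH-3T3 mouse fibroblasts cultured with fluconazole at 8 µg/mL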
[21] = NIH3T3 cell viability loss – ATP luminescence, mouse fibroblasts, counter-screen, dose response (AID 2010); assay type: functional, cell-based;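 note: cells exposed to compound for about 90 hours before reading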
[22] = Trypanosoma cruzi growth suppression in host cells – NIH3T3 host cells, beta-gal luminescence, confirmation (AID 2044); assay type: functional, cell-based;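 note: intracellular parasites grown in NIH/3T3 mouse fibroblasts as host cells; luminescent beta-galactosidase reporter signal from transgenic T. cruzi replicating inside host cells; inhibitors lower the luminescence signal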
[23] = Counterscreen for AddAB inhibitors: absorbance-based bacterial cell-based high throughput dose response assay for inhibitors of bacterial viability. [Related pubchem assays (depositor defined):AID435030, AID449728, AID449731, AID488942, AID488955, AID488956]; assay type: functional
[24] = fluconazole-exposed Candida albicans growth modulators – fluorescence, retest, confirmation (AID 2467); assay type: functional, cell-based
[25] = biological target: T5, Serine/threonine-protein phosphatase (Candida dubliniensis (strain CD36 / CBS 7987 / NCPF 3949 / NRRLY-17841) (Yeast), UniProt B9W6M3); assay: blockers of CaCl2-induced CDRE-lacZ signaling – S. cerevisiae, luminescence, secondary, dose response (AID 2388); assay type: functional, cell-based;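 note: yeast reporter cells carrying a calcineurin-responsive lacZ construct stimulated with calcium chloride; luminescent beta-galactosidase reporter signal in whole cells rather than isolated phosphatase activity; potency for inhibition where a drop in reporter signal means calcineurin blockade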
T5 sequence (B9W6M3 whole entry): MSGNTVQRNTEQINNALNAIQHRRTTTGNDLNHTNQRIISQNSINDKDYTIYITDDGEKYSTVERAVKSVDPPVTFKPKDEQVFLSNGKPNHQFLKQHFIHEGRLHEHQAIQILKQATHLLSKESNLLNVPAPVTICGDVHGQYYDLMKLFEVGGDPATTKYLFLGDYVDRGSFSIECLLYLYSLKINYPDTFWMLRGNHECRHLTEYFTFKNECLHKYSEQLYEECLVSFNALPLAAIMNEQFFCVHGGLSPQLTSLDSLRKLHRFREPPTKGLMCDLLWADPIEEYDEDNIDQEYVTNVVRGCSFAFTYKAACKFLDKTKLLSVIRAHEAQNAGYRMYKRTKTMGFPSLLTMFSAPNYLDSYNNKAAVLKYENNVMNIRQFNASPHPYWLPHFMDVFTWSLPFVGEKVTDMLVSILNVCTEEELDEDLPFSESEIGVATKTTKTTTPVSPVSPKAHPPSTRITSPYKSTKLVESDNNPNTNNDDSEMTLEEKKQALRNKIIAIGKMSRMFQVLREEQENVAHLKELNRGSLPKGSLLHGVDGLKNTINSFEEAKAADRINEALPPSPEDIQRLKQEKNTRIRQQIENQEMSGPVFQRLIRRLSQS

Streptococcus = assay: GAS UMAA2166 growth inhibition – luminescence, BacTiterGlo, counter-screen for streptokinase expression inhibitor project, dose response (AID 1915); assay type: functional, organism-based;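 note: potency for reduction of bacterial viability or growth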
Exodeoxyribonuclease V = Exodeoxyribonuclease V (Escherichia coli (strain K12), UniProt P04993+P07648+P08394); assay: RecBCD inhibition via phage-restricted bacterial growth – absorbance, V66 E. coli, mutant T4 phage, counter-screen for AddAB inhibitor project, dose response (AID 492957); assay type: functional, cell-based, Escherichia coli str. K-12 substr. MG1655
[26] = biological target: T1, Kappa-type opioid receptor; assay type: functional; remark: listed apart in the source
Beta-galactosidase = Beta-galactosidase (Escherichia coli, UniProt Q8VNN2); assay type: functional

Sequence of SUMO E1/E2 (Q9UBE0 whole entry): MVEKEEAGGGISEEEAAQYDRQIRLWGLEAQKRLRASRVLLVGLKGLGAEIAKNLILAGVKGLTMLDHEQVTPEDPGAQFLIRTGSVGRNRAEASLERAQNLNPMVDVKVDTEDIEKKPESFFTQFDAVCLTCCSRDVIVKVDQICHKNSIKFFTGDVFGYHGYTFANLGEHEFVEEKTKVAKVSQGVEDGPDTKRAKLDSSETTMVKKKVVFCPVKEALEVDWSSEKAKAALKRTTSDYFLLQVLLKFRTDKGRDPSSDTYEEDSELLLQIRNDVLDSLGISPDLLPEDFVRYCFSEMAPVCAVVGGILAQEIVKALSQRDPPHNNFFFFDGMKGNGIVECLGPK
Sequence of SUMO E1/E2 (Q9UBT2 whole entry): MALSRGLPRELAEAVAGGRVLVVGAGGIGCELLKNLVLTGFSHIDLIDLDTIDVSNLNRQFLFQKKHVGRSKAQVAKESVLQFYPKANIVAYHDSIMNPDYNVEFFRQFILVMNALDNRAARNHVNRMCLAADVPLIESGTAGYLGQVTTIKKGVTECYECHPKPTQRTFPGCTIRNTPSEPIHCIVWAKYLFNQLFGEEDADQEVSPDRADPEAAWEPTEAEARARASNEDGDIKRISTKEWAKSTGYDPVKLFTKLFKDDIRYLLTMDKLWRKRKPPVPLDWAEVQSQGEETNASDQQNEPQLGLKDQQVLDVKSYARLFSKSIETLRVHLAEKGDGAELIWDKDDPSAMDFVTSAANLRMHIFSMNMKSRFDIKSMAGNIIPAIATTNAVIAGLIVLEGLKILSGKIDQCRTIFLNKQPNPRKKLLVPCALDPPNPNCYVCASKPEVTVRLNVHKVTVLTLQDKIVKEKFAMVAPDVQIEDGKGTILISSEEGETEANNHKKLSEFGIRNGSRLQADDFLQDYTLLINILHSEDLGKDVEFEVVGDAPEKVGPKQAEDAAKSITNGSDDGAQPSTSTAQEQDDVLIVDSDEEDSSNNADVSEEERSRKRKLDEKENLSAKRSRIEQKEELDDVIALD
Sequence of SUMO E1/E2 (P63279 whole entry): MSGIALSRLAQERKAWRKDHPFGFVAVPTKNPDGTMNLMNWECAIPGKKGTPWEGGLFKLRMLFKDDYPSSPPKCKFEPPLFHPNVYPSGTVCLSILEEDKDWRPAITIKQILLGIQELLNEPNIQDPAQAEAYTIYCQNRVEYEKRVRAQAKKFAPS
T1 sequence (P41145 whole entry): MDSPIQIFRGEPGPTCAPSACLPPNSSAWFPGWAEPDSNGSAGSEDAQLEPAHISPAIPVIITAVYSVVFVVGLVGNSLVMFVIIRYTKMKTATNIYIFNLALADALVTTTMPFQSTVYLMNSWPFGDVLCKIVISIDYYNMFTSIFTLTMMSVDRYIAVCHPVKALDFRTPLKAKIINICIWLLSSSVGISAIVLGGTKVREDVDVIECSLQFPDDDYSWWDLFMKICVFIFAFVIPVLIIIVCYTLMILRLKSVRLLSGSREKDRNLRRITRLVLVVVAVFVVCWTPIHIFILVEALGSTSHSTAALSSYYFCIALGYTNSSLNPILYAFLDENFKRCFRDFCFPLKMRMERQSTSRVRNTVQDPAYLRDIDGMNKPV
T2 sequence (Q00975 whole entry): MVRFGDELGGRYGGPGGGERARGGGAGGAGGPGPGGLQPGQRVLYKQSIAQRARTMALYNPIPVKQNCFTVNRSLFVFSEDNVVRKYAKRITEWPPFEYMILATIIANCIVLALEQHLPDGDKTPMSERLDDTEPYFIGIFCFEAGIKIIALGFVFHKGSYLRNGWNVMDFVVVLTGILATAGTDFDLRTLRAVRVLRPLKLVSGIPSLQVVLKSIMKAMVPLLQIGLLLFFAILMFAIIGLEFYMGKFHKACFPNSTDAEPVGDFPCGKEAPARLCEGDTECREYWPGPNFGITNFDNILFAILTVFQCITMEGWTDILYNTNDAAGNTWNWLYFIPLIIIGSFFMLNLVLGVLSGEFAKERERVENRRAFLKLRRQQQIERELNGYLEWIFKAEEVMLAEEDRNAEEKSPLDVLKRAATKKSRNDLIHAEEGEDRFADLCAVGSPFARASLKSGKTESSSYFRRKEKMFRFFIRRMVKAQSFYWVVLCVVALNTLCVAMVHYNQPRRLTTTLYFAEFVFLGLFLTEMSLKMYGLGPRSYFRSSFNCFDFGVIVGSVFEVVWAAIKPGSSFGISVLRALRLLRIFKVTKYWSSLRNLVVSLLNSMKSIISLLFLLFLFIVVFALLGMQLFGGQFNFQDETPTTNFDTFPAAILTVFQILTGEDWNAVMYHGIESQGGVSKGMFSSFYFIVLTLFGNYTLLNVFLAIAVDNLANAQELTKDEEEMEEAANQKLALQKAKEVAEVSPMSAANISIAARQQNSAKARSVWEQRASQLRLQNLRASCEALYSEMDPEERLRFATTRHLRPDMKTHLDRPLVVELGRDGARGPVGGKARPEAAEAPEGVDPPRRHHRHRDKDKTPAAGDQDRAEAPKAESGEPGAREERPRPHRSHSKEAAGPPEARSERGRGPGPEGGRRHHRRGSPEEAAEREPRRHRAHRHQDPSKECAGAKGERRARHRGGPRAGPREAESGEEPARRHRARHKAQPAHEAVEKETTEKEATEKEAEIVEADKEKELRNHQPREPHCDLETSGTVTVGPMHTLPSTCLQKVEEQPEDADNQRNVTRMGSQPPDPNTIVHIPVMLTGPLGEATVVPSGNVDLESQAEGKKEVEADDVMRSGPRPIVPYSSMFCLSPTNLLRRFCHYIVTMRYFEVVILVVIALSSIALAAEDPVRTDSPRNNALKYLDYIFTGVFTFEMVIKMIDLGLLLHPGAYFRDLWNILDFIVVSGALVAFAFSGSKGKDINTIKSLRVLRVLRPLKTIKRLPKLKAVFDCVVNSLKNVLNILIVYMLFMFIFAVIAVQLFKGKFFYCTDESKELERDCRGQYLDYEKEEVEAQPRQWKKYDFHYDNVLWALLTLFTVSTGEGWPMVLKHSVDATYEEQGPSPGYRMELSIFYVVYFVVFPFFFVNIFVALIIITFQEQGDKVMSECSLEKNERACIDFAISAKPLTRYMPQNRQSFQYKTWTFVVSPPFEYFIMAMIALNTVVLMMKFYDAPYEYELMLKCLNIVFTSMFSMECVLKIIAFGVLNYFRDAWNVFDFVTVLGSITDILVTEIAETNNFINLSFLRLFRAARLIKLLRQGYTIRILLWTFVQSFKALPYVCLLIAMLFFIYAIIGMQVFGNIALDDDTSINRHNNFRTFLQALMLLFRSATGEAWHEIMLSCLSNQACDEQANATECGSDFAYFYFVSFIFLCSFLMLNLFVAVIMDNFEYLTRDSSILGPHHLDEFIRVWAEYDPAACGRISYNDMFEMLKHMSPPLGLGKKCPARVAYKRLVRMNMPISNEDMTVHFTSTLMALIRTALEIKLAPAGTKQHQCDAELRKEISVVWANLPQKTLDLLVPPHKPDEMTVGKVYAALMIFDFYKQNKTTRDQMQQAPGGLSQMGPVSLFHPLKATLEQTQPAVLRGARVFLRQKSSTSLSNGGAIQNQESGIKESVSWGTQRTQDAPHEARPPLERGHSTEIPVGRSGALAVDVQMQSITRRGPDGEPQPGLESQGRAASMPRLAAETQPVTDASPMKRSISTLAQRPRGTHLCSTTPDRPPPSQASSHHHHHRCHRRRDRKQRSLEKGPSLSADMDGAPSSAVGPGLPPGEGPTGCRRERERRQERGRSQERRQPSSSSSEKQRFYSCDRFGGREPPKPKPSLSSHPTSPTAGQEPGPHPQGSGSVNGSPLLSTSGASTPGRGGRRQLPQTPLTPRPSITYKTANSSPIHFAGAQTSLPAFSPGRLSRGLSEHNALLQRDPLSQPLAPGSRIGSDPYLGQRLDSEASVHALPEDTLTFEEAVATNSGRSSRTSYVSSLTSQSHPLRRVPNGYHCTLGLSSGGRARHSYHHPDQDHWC
T2 sequence (Q02410 whole entry): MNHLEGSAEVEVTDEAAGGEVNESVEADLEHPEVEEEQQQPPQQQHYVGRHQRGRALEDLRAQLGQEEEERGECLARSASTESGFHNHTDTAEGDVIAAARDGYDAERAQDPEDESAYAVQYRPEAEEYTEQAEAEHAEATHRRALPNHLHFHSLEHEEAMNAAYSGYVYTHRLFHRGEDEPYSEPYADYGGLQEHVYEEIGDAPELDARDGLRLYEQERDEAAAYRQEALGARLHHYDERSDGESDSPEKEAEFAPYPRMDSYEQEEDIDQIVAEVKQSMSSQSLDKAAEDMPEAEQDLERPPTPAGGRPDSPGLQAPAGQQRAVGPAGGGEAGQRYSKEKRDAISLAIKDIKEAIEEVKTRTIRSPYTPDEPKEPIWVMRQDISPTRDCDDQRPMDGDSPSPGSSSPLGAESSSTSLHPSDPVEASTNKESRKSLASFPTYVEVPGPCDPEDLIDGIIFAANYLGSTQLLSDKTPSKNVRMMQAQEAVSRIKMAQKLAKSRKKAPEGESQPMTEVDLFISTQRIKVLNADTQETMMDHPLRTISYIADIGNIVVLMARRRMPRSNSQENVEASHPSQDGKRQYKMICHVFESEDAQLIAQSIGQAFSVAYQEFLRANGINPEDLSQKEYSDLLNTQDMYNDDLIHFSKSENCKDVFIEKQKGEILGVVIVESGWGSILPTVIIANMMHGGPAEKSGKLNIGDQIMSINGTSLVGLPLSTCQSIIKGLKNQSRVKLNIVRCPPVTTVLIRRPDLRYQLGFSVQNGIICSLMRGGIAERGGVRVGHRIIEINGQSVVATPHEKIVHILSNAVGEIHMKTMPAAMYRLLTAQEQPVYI
Sequence of FAD-linked sulfhydryl oxidase ALR (P55789 whole entry): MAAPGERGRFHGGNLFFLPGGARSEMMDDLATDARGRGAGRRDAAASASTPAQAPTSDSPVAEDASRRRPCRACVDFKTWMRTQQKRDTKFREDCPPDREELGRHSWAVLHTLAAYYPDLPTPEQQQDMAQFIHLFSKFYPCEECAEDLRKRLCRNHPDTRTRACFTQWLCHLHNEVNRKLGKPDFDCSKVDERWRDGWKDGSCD

Compound: COc1ccc(/C=N/Nc2nc3ccccc3[nH]2)c(OC)c1OC
- IC50 [1]: > 67.5 µM (inactive)
- AC50 [2]: 0.278 µM (active)
- IC50 (HEK293 [3]): > 67.5 µM (inactive)

Compound: Cc1c(Cl)cccc1NC(=O)CCC(=O)N/N=C/c1ccc[nH]1
- IC50 [4]: 2.36 µM (active)
- IC50 [5]: 2.31 µM (active)

Compound: COc1cccc(C(=O)Nc2cc([N+](=O)[O-])ccc2N2CCN(C)CC2)c1
- AC50 (Escherichia coli): 25.5 µM (active)

Compound: CC(Sc1nnc(-c2ccccc2F)n1C1CC1)C(=O)NCc1ccco1 (centres undefined)
- AC50 (Escherichia coli): 24.4 µM (active)

Compound: O=C(CCC1CCCC1)Nc1ccc(C(=O)NCc2cccnc2)cc1
- EC50 [6]: > 150 µM (not active)
- EC50 (BJ [7]): 1.53 µM (inconclusive)
- IC50 [4]: > 16 µM (inactive)
- AC50 [8]: 0.882 µM (active)
- IC50 [5]: 0.331 µM (active)
- EC50 (BJ [9]): 0.672 µM (inconclusive)
- EC50 (BJ [10]): > 150 µM (not active)

Compound: CC1=C(C(=O)OCc2ccc3c(c2)OCO3)C(c2ccccc2)NC(=O)N1 (centres undefined)
- AC50 [11]: 0.695 µM (active)
- AC50 (HEK293 [12]): 6.3 µM (active)

Compound: O=C(c1ccccn1)N(Cc1cc2cc(Cl)ccc2[nH]c1=O)CC1CC1
- EC50 [13]: > 20 µM (inactive)

Compound: COc1ccc(CNC(=O)COC(=O)c2cc(-c3ccco3)nc3ccccc23)c(OC)c1
- IC50 [14]: 23 µM (active)
- IC50 (SUMO E1/E2): 14.7 µM (active)
- IC50 [15]: 11.1 µM (active)

Compound: O=C(NCCN1CCC2(CC1)C(=O)NCN2c1ccccc1)c1cc2ccccc2s1
- IC50 (Phospholipase D2): 0.092 µM (active)
- IC50 (Phospholipase D1): 4 µM (active)

Compound: COc1ccccc1NC(=O)COC(=O)c1cc(-c2ccco2)nc2ccccc12
- IC50 [14]: 21.5 µM (active) and > 56.8 µM (inactive)
- IC50 (SUMO E1/E2): 16 µM (active) and 56.7 µM (active)
- IC50 [15]: 6.66 µM (active) and 12.5 µM (active)

Compound: Clc1nss/c1=N\c1ncccn1
- IC50 [16]: > 100 µM (inactive)

Compound: Cc1ccc2nc(NC(=O)c3ccc(Cl)s3)sc2c1
- IC50 [1]: > 67.5 µM (inactive)
- IC50 (HEK293 [3]): > 67.5 µM (inactive)

Compound: O=C(NCCN1CCC2(CC1)C(=O)NCN2c1ccc(F)cc1)c1cnc2ccccc2c1
- IC50 (Phospholipase D2): 0.14 µM (active)
- IC50 (Phospholipase D1): 20 µM (active)

Compound: Oc1ccc(N=Nc2ccc3c(c2)OCCO3)c2ncccc12
- IC50 [17]: 4.93 µM (active)
- EC50 [18]: 11.7 µM (active)
- AC50 (INS1): 2.32 µM (active)
- EC50 [19]: 0.682 µM (active)
- EC50 [20]: > 150 µM (inconclusive)
- EC50 [21]: 4.43 µM (active)
- EC50 [22]: 0.91 µM (active)
- IC50 [23]: > 119 µM (inactive)
- EC50 [24]: 0.872 µM (active)
- EC50 [25]: > 180 µM (inactive)
- EC50 (Streptococcus): 2.27 µM (active)
- IC50 (Exodeoxyribonuclease V): > 119 µM (inactive)
- IC50 [26]: > 32 µM
- EC50 (Beta-galactosidase): 25.3 µM (active)
